Species: Rattus norvegicus
Experiment: DrugMatrix - Regimen: Daily Repeat
Type: toxicity, organism-based, Sprague-Dawley
Design: regimen Daily Repeat, gender Male, age 6-8 weeks
Details: in vivo, iv, vehicle 100 % SALINE; for EOSINOPHIL / ERYTHROCYTE COUNT / HEMATOCRIT / HEMOGLOBIN / LEUKOCYTE COUNT / LYMPHOCYTE / MEAN CORPUSCULAR HEMOGLOBIN / MEAN CORPUSCULAR HEMOGLOBIN CONCENTRATION / MEAN CORPUSCULAR VOLUME / MONOCYTE / NEUTROPHIL / NUCLEATED RED BLOOD CELLS / PLATELET COUNT / ABSOLUTE BASOPHIL / ABSOLUTE EOSINOPHIL / ABSOLUTE LYMPHOCYTE / ABSOLUTE MONOCYTE / ABSOLUTE SEGMENTED NEUTROPHIL / BASOPHIL: tissue Blood; for ALANINE AMINOTRANSFERASE / ALBUMIN / ALKALINE PHOSPHATASE / ASPARTATE AMINOTRANSFERASE / BLOOD UREA NITROGEN / CARBON DIOXIDE / CHLORIDE / CHOLESTEROL / CREATINE PHOSPHOKINASE / CREATININE / GLUCOSE / LACTATE DEHYDROGENASE / LIPASE / PHOSPHORUS / POTASSIUM / SODIUM / TOTAL BILIRUBIN / TOTAL PROTEIN / URIC ACID: tissue Plasma
[1] = 0 mg/kg, 72 h, dose level Control, time 3 day
[2] = 0 mg/kg, 120 h, dose level Control, time 5 day
[3] = 20 mg/kg, 72 h, dose level Low, time 3 day
[4] = 20 mg/kg, 120 h, dose level Low, time 5 day

In the case of `NCC[C@H](O)C(=O)N[C@@H]1C[C@H](N)[C@@H](O[C@H]2O[C@H](CN)[C@@H](O)[C@H](O)[C@H]2O)[C@H](O)[C@H]1O[C@H]1O[C@H](CO)[C@@H](O)[C@H](N)[C@H]1O` [AMIKACIN], the EOSINOPHIL [1] is reported as 0%, the “ERYTHROCYTE COUNT” value [1] is reported as 5.38 x10E6/uL and the HEMATOCRIT [1] is reported as 33.67%. The HEMOGLOBIN [1] was 12.88 G/DL, the “LEUKOCYTE COUNT” value [1] was 8.37 x10E3/uL and the LYMPHOCYTE [1] was 91.17%. The “MEAN CORPUSCULAR HEMOGLOBIN” value [1] was 23.95 pg, the “MEAN CORPUSCULAR HEMOGLOBIN CONCENTRATION” value [1] was 38.23 G/DL and the “MEAN CORPUSCULAR VOLUME” value [1] was 62.6 fL. For the same compound, the MONOCYTE [1] was 0.83%, the NEUTROPHIL [1] was 8% and the “NUCLEATED RED BLOOD CELLS” value [1] was 0.17 /100WBC. The “PLATELET COUNT” value [1] was 865 x10E3/uL, the “ALANINE AMINOTRANSFERASE” value [1] was 51.67 u/L and the ALBUMIN [1] was 3.97 G/DL. The “ALKALINE PHOSPHATASE” value [1] was 351.17 u/L, the “ASPARTATE AMINOTRANSFERASE” value [1] was 82.33 u/L and the “BLOOD UREA NITROGEN” value [1] was 15.17 mg/dL. The “CARBON DIOXIDE” value [1] was 34.5 mmol/L, the CHLORIDE [1] was 100 MEQ/L and the CHOLESTEROL [1] was 80.33 mg/dL. For the same compound, the “CREATINE PHOSPHOKINASE” value [1] was 316.5 u/L, the CREATININE [1] was 0.17 mg/dL and the GLUCOSE [1] was 149.17 mg/dL. The “LACTATE DEHYDROGENASE” value [1] was 105.67 u/L, the LIPASE [1] was 9.5 u/L and the PHOSPHORUS [1] was 10.87 mg/dL. The POTASSIUM [1] was 5.47 MEQ/L, the SODIUM [1] was 144.2 MEQ/L and the “TOTAL BILIRUBIN” value [1] was 0.2 mg/dL. For the same compound, the “TOTAL PROTEIN” value [1] was 5.83 G/DL, the “URIC ACID” value [1] was 0.83 mg/dL and the “ABSOLUTE BASOPHIL” value [2] was 0 CELLS/uL. The “ABSOLUTE EOSINOPHIL” value [2] was 0 CELLS/uL, the “ABSOLUTE LYMPHOCYTE” value [2] was 6333.5 CELLS/uL and the “ABSOLUTE MONOCYTE” value [2] was 38.83 CELLS/uL. For the same compound, the “ABSOLUTE SEGMENTED NEUTROPHIL” value [2] was 661 CELLS/uL, the BASOPHIL [2] was 0% and the EOSINOPHIL [2] was 0%. The “ERYTHROCYTE COUNT” value [2] was 5.44 x10E6/uL, the HEMATOCRIT [2] was 34.17% and the HEMOGLOBIN [2] was 13.22 G/DL. For the same compound, the “LEUKOCYTE COUNT” value [2] was 7.03 x10E3/uL, the LYMPHOCYTE [2] was 90.17% and the “MEAN CORPUSCULAR HEMOGLOBIN” value [2] was 24.38 pg. The “MEAN CORPUSCULAR HEMOGLOBIN CONCENTRATION” value [2] was 38.7 G/DL, the “MEAN CORPUSCULAR VOLUME” value [2] was 62.95 fL and the MONOCYTE [2] was 0.5%. For the same compound, the NEUTROPHIL [2] was 9.33%, the “NUCLEATED RED BLOOD CELLS” value [2] was 0 /100WBC and the “PLATELET COUNT” value [2] was 924.33 x10E3/uL. The “ALANINE AMINOTRANSFERASE” value [2] was 52.5 u/L, the ALBUMIN [2] was 3.97 G/DL and the “ALKALINE PHOSPHATASE” value [2] was 364.83 u/L. For the same compound, the “ASPARTATE AMINOTRANSFERASE” value [2] was 82.5 u/L, the “BLOOD UREA NITROGEN” value [2] was 17 mg/dL and the “CARBON DIOXIDE” value [2] was 32.33 mmol/L. For the same compound, the CHLORIDE [2] was 99.6 MEQ/L, the CHOLESTEROL [2] was 75.83 mg/dL and the “CREATINE PHOSPHOKINASE” value [2] was 419 u/L. For the same compound, the CREATININE [2] was 0.21 mg/dL, the GLUCOSE [2] was 155 mg/dL and the “LACTATE DEHYDROGENASE” value [2] was 111.5 u/L. For the same compound, the LIPASE [2] was 11.33 u/L, the PHOSPHORUS [2] was 10.32 mg/dL and the POTASSIUM [2] was 5.37 MEQ/L. For the same compound, the SODIUM [2] was 144.64 MEQ/L, the “TOTAL BILIRUBIN” value [2] was 0.18 mg/dL and the “TOTAL PROTEIN” value [2] was 5.98 G/DL. For the same compound, the “URIC ACID” value [2] was 0.62 mg/dL, the “ABSOLUTE BASOPHIL” value [3] was 0 CELLS/uL and the “ABSOLUTE EOSINOPHIL” value [3] was 0 CELLS/uL. The “ABSOLUTE LYMPHOCYTE” value [3] was 8480.67 CELLS/uL, the “ABSOLUTE MONOCYTE” value [3] was 225.67 CELLS/uL and the “ABSOLUTE SEGMENTED NEUTROPHIL” value [3] was 993.67 CELLS/uL. For the same compound, the BASOPHIL [3] was 0%, the EOSINOPHIL [3] was 0% and the “ERYTHROCYTE COUNT” value [3] was 5.64 x10E6/uL. The HEMATOCRIT [3] was 34.43%, the HEMOGLOBIN [3] was 13 G/DL and the “LEUKOCYTE COUNT” value [3] was 9.7 x10E3/uL. For the same compound, the LYMPHOCYTE [3] was 88%, the “MEAN CORPUSCULAR HEMOGLOBIN” value [3] was 23.03 pg and the “MEAN CORPUSCULAR HEMOGLOBIN CONCENTRATION” value [3] was 37.77 G/DL. The “MEAN CORPUSCULAR VOLUME” value [3] was 61 fL, the MONOCYTE [3] was 2.33% and the NEUTROPHIL [3] was 9.67%. For the same compound, the “NUCLEATED RED BLOOD CELLS” value [3] was 0.33 /100WBC, the “PLATELET COUNT” value [3] was 903.33 x10E3/uL and the “ALANINE AMINOTRANSFERASE” value [3] was 53.67 u/L. For the same compound, the ALBUMIN [3] was 4.13 G/DL, the “ALKALINE PHOSPHATASE” value [3] was 308.67 u/L and the “ASPARTATE AMINOTRANSFERASE” value [3] was 82.33 u/L. For the same compound, the “BLOOD UREA NITROGEN” value [3] was 14 mg/dL, the “CARBON DIOXIDE” value [3] was 35.67 mmol/L and the CHLORIDE [3] was 99 MEQ/L. The CHOLESTEROL [3] was 77.33 mg/dL, the “CREATINE PHOSPHOKINASE” value [3] was 320 u/L and the CREATININE [3] was 0.17 mg/dL. The GLUCOSE [3] was 145.67 mg/dL, the “LACTATE DEHYDROGENASE” value [3] was 98 u/L and the LIPASE [3] was 9.33 u/L. The PHOSPHORUS [3] was 11.1 mg/dL, the POTASSIUM [3] was 6.07 MEQ/L and the SODIUM [3] was 144.47 MEQ/L. For the same compound, the “TOTAL BILIRUBIN” value [3] was 0.2 mg/dL, the “TOTAL PROTEIN” value [3] was 6.03 G/DL and the “URIC ACID” value [3] was 0.9 mg/dL. The “ABSOLUTE BASOPHIL” value [4] was 0 CELLS/uL, the “ABSOLUTE EOSINOPHIL” value [4] was 0 CELLS/uL and the “ABSOLUTE LYMPHOCYTE” value [4] was 3175.67 CELLS/uL.

From ChEMBL document CHEMBL3885881, “DrugMatrix”
